Columns and labels:
Assay type in all cases: cell-based
[1] = system: C4-2 prostate cancer cells; assay: In vitro cytotoxicity / cell proliferation (MTS assay); details: 48 h, C4-2, 2 days, read-out: IC50 (concentration of drug required to kill 50% of cells)
Description: (§1) To examine the anti-cancer activity of the CD-CUR inclusion complex (CD-30), cell proliferation assays were performed using C4-2 and DU145 prostate cancer cell lines. Prostate cancer cells (5000 cells/well in 100 μL media) were seeded in 96-well plates and allowed to attach overnight. […] Media containing equivalent amounts of CD in PBS or DMSO was used as the control. […] The reagent (25 μL/well) was added to each well and plates were incubated for 3 hrs at 37° C. The color intensity was measured at 492 nm using a microplate reader (BioMate 3 UV-Vis spectrophotometer, Thermo Electron Corporation, Hudson, N.H.). […] Just before adding MTS reagents, representative phase contrast microscope images of cells were taken using an Olympus BX 41 microscope (Olympus, Center Valley, Pa., USA).

[2] = system: DU145 prostate cancer cells; assay: as above; details: Homo sapiens, DU-145, 48 h, DU145, 2 days, read-out: IC50 (concentration of drug required to kill 50% of cells)
Description: as §1

[3] = system: C4-2 prostate cancer cells; assay: Colony formation (clonogenic) assay; details: C4-2, 2 μM, 10 day period
Description: (§2) Prostate cancer cells (1000) were seeded in 2 mL media in 6-well plates and allowed 2-3 days to attach and initiate the colony formations. […] The plates were then washed twice with PBS, fixed in chilled methanol, stained with hematoxylin (Fisher Scientific, Fair Lawn, N.J., USA), washed with water and air dried. The number of colonies was counted by a MultiImage™ Cabinet (Alpha Innotech Corporation, San Leandro, Calif., USA) using AlphaEase Fc software. The percent of colonies was calculated using the number of colonies formed in treatment divided by number of colonies formed in DMSO or CD in PBS controls.

[4] = system: DU145 prostate cancer cells; assay: Colony formation (clonogenic) assay; details: DU145, 2 μM, 10 day period
Description: as §2

COc1cc(/C=C/C(=O)CC(=O)/C=C/c2ccc(O)c(OC)c2)ccc1O [CUR, bis(4-hydroxy-3-methoxyphenyl)-1,6-diene-3,5-dione]
IC50 [1]: 19.6 µM | IC50 [2]: 18.4 µM | colonies, percent of DMSO or CD control [3]: 96% | colonies, percent of DMSO or CD control [4]: 74%

From US20140228318A1, “Curcumin formulations and methods for making such formulations” (Sanford Research/USD, priority 2010, published 2014)
